Legend:
[1] = tested on: och1Δ mutant strain; test: Susceptibility of och1Δ mutant, CFU; assay type: cell-based, Candida albicans; details: och1Δ versus SN250, 1 h
Method: The SN250 and och1Δ mutant strains were grown overnight in YPD broth at 30° C. The overnight culture was then subcultured into fresh YPD medium and grown for 5 h. Cells were treated with different concentration of peptides for 1 h. After treatment, samples were serially diluted in PBS and 15 μl of each diluent was spotted onto YPD agar plates. Colony-forming units were counted after 24 h incubation at 30° C. The data were represented as the mean values±SD of three independent experiments.

[2] = tested on: SC5314 strain of Candida albicans; test: Effect of cell wall disrupting agents on peptide activity, CFU; assay type: cell-based; details: Proteinase K 1 mg/ml, 30 min
Method: The SC5314 strain of Candida albicans (wild type or WT) were grown overnight in YPD broth at 30° C. The overnight culture was then subcultured into fresh YPD medium and grown for 5 h. Cells were treated with Proteinase K (1 mg/ml) for 30 min or Zymolyase (5 mg/ml) for 1 h at 30° C., followed by reacting with different concentrations of the peptides for 1 h, respectively. After that, samples were serially diluted in phosphate-buffered saline (PBS) and 15 μl of each diluent was spotted onto YPD agar plates. Colony-forming units were counted after incubation at 30° C. for 24 h. The data were represented as the mean values±SD of three independent experiments.

[3] = tested on: Wild type (WT) Candida albicans; test: Candidacidal activity against cell suspension, colony count; assay type: cell-based; details: 37° C., 1 hour
Method: Wild type (WT) Candida albicans was cultivated in a YPD medium at 30° C. overnight and then transferred to 5 ml of fresh YPD culture broth, subsequently cultivated for another 5 hours. After being collected by centrifugation, the fungi were washed with sodium acetate (12.5 mM) twice, redissolved with 12.5 mM sodium acetate to yield a fungal concentration of 1.5×10^5 cells/ml. 50 μl of liquid fungal suspension was taken out to be mixed with 50 μl of sequence-diluted antimicrobial peptide and placed in different wells of a 96-well plate, allowing to react (37° C.) for 1 hour (as shown in FIG. 4(A)). Then, 20 μl of fungal liquid mixture was added into 780 μl of PBS to terminate the reaction. Finally, 50 μl was taken out and inoculated on a solid YPD medium, cultivated at 30° C. for 24 hours, then the number of colonies were counted.

[4] = Circular dichroism secondary structure in 85% TFE, BeStSel analysis; assay type: physicochemical; details: CD analyzed by BeStSel
Method: The present invention utilized a Circular Dichroism Spectrometer (AVIV Company) to observe the secondary structure of the antimicrobial peptides. Circular dichoism spectra of P-113 and its derivatives were recorded over the wavelength range of 195-260 nm with readings every 1 nm by using a quartz cuvette having 1 mm optical path length. Ellipticities were represented as mean residue molar ellipticity (MRE). P-113, P-113Du and P-113Tri were dissolved in 85% trifluoroethanol (TFE) solution.

[5] = tested on: Candida albicans strain SC5314 biofilms; test: Biofilm cell viability, XTT reduction assay; assay type: cell-based; details: biofilm cells, 37° C., 1 hr
Method: Candida albicans strain SC5314 was cultivated in a YPD medium overnight and then transferred to a fresh YPD culture broth, diluted until the concentration was 3×10^5 cells/ml. 100 μl of liquid fungal suspension was placed in a 96-well plate for cultivation at 37° C. for 24 hours, formed biofilms were washed with sodium acetate (12.5 mM). Then, sequence-diluted antimicrobial peptides P-113, P-113Du and P-113Tri (0-200 μM) were added, reacted at 37° C. for 1 hour, washed with PBS twice. The cellular activity of the biofilms was determined by using XTT (2,3-bis(2-methoxy-4-nitro-5-sulfophenyl)-2H-tetrazolium-5-carboxanilide) reduction assays to analyze the cell survival rate. To perform this reaction, XTT (0.5 mg/ml) and Menadione (0.5 μM) were dissolved in PBS and then added into a 96-well plate formed by biofilms, reacted at 30° C. for 30 minutes, the optical density was measured at wavelength 490 nm (OD490). The cellular activity of the biofilms was represented as a percentage.

[6] = tested on: Pseudomonas aeruginosa; test: Antimicrobial effect against bacteria (MIC); assay type: cell-based; details: strain PAO1, ATCC 15692
Method: (§1) Wild type (WT) Pseudomonas aeruginosa, Klebsiella pneumoniae, Enterobacter aerogenes, Staphylococcus aureus were cultivated overnight in LB medium at 37° C., then transferred to 5 ml of fresh LB culture broth, cultivated again for another 3 hours. Bacteria were collected by centrifugation, washed with sodium acetate (12.5 mM) twice, redissolved with 12.5 mM sodium acetate until the concentration was 1.5×10^5 cells/ml. Mixed with sequential-diluted anti-bacterial peptides, seeded in different wells of a 96-well plate allowing to react for 1 hour. Then, 20 μl of liquid bacterial mixture was taken out to mix with 780 μl of PBS (Phosphate-buffered saline) to terminate the reaction. 50 μl was then taken out and inoculated on a solid medium, after being cultivated at 30° C. for 24 hours, formed colonies were observed.

[7] = tested on: Klebsiella pneumoniae; test: Antimicrobial effect against bacteria (MIC); assay type: cell-based; details: strain CG43
Method: as §1

[8] = tested on: Staphylococcus aureus; test: Antimicrobial effect against bacteria (MIC); assay type: cell-based; details: strain ATCC 33591
Method: as §1

[9] = tested on: Enterobacter aerogenes; test: Antimicrobial effect against bacteria (MIC); assay type: cell-based; details: strain ATCC 13048
Method: as §1

[10] = tested on: C. dubliniensis; assay type: cell-based
Method: (§2) The antimicrobial activities against clinical isolates and drug-resistant strains of P-113 and its derived peptides were examined. The present invention evaluated the effect of P-113 on 15 clinical isolates of fungi belonging to the genus Candida (see Table 1). Clinical isolates were cultivated overnight at 30° C. under shaking in a YPD cultural broth (1% yeast extract, 2% peptone and 2% glucose), cells were centrifuged and washed with YPD, then cultivated again in a YPD culture broth allowing to grow for 5 hours (initial optical density at 600 nm [OD600]˜0.5). Cells were washed with PBS and then collected by centrifugation, redissolved in a culture broth (modified RPMI 1640 medium, LYM), the cell concentration was adjusted to ˜0.1 [OD600]/ml and then treated with P-113. After the mixed solution was cultivated under shaking at 37° C. and 5% CO2 for 24 hours, absorbance measurement (OD value) was performed to determine the minimum inhibitory concentration (MIC).

[11] = tested on: C. parapsilosis; assay type: cell-based
Method: as §2

[12] = tested on: SC5314 strain of Candida albicans; test: Intracellular ROS assay (DHE, MitoSOX Red, flow cytometry); assay type: cell-based; details: 0.25 μM, 1 h, 37° C.
Method: The SC5314 strain of Candida albicans (wild type or WT) were grown overnight in YPD broth at 30° C. The overnight culture was then subcultured into fresh YPD medium and grown for 5 h. Cells were harvested by centrifugation, washed twice with 12.5 mM sodium acetate (NaOAc) and resuspended in 12.5 mM NaOAc to a concentration of 1*10^7 cells/ml. The cells were treated with various AMPs (0.25 μM) for 1 h at 37° C. After treatment, cells were washed twice with 12.5 mM NaOAc. Dihydroethidium (DHE) is a superoxide indicator, and MitoSOX Red (MitoSOX) was introduced for selective detection of superoxide in the mitochondria of live cells. The intracellular ROS was measured using DHE (20 μM) staining for 30 min and MitoSOX Red (5 μM) for 60 min in PBS. Fluorescent detection was performed by flow cytometry.

[13] = tested on: Wild type (WT) Candida albicans; test: Salt and pH tolerance of candidacidal activity; assay type: cell-based
Method: Wild type (WT) Candida albicans was cultivated in a YPD medium at 30° C. overnight and then transferred to 5 ml of fresh YPD culture broth, cultivated subsequently for another 5 hours. After the fungi were collected by centrifugation, washed with 12.5 mM sodium acetate twice, redissolved with 12.5 mM NaOAc to yield a fungal concentration of 1.5×10^6 cells/ml. Fifty microliters of liquid fungal suspension was taken out to mix with 50 μl of sequentially diluted antimicrobial peptides and placed in different wells of a 96-well plate allowing to react for 1 hour at 37° C. (as shown in FIG. 4(A). Then, 50 μl of liquid fungal mixture was taken out and 450 μl PBS was added to terminate the reaction. Finally, 25 μl was taken out and inoculated on a solid YPD medium.

| Compound | susceptibility of och1Δ mutant to peptide [1] | candidacidal activity after proteinase K treatment of cells [2] | activity for killing fungus compared with P-113 [3] | content of the α-helical secondary structure [4] [%] | concentration causing 50% reduction in the metabolic activity (50% RMA) [5] [µg/mL] | Minimum Inhibitory Concentration (MIC) [6] [µg/mL] | Minimum Inhibitory Concentration (MIC) [7] [µg/mL] | Minimum Inhibitory Concentration (MIC) [8] [µg/mL] | Minimum Inhibitory Concentration (MIC) [9] [µg/mL] | Minimum Inhibitory Concentration [10] [µg/mL] | Minimum Inhibitory Concentration [11] [µg/mL] | intracellular ROS formation [12] | candidacidal activity ([13]; 93.75 mM sodium acetate) | candidacidal activity ([13]; pH 4.5, 6, and 8) | ROS-inducing ability, rank among peptides [12] | antifungal activity in the high salt environment ([13]; 62.5 and 93.75 mM) |
| --- | --- | --- | --- | --- | --- | --- | --- | --- | --- | --- | --- | --- | --- | --- | --- | --- |
| LL-37: the control peptide (LLGDFFRKSKEKIGKEFKRIVQRIKDFLRNLVPRTES; Antibacterial peptide LL-37; UniProt P49913 134-170, looked up) [reference compound] | resistant | can still kill C. albicans cells | – | – | – | – | – | – | – | – | – | – | – | – | – | – |
| C[C@H](N)C(=O)N[C@@H](CCCCN)C(=O)N[C@@H](CCCNC(=N)N)C(=O)N[C@@H](Cc1c[nH]cn1)C(=O)N[C@@H](Cc1c[nH]cn1)C(=O)NCC(=O)N[C@@H](Cc1ccc(O)cc1)C(=O)N[C@@H](CCCCN)C(=O)N[C@@H](CCCNC(=N)N)C(=O)N[C@@H](CCCCN)C(=O)N[C@@H](Cc1ccccc1)C(=O)N[C@@H](Cc1c[nH]cn1)C(=O)N[C@@H](C)C(=O)N[C@@H](CCCCN)C(=O)N[C@@H](CCCNC(=N)N)C(=O)N[C@@H](Cc1c[nH]cn1)C(=O)N[C@@H](Cc1c[nH]cn1)C(=O)NCC(=O)N[C@@H](Cc1ccc(O)cc1)C(=O)N[C@@H](CCCCN)C(=O)N[C@@H](CCCNC(=N)N)C(=O)N[C@@H](CCCCN)C(=O)N[C@@H](Cc1ccccc1)C(=O)N[C@@H](Cc1c[nH]cn1)C(N)=O [P-113Du] | resistant | failed to kill C. albicans | stronger activity for killing fungus than P-113 | 10.6 | 51.54 | 3.125 | 12.5 | 25 | 25 | 3.10 | 0.78 | induced intracellular ROS formation | potent candidacidal activity | consistent candidacidal activity | – | – |
| C[C@H](N)C(=O)N[C@@H](CCCCN)C(=O)N[C@@H](CCCNC(=N)N)C(=O)N[C@@H](Cc1c[nH]cn1)C(=O)N[C@@H](Cc1c[nH]cn1)C(=O)NCC(=O)N[C@@H](Cc1ccc(O)cc1)C(=O)N[C@@H](CCCCN)C(=O)N[C@@H](CCCNC(=N)N)C(=O)N[C@@H](CCCCN)C(=O)N[C@@H](Cc1ccccc1)C(=O)N[C@@H](Cc1c[nH]cn1)C(=O)N[C@@H](C)C(=O)N[C@@H](CCCCN)C(=O)N[C@@H](CCCNC(=N)N)C(=O)N[C@@H](Cc1c[nH]cn1)C(=O)N[C@@H](Cc1c[nH]cn1)C(=O)NCC(=O)N[C@@H](Cc1ccc(O)cc1)C(=O)N[C@@H](CCCCN)C(=O)N[C@@H](CCCNC(=N)N)C(=O)N[C@@H](CCCCN)C(=O)N[C@@H](Cc1ccccc1)C(=O)N[C@@H](Cc1c[nH]cn1)C(=O)N[C@@H](C)C(=O)N[C@@H](CCCCN)C(=O)N[C@@H](CCCNC(=N)N)C(=O)N[C@@H](Cc1c[nH]cn1)C(=O)N[C@@H](Cc1c[nH]cn1)C(=O)NCC(=O)N[C@@H](Cc1ccc(O)cc1)C(=O)N[C@@H](CCCCN)C(=O)N[C@@H](CCCNC(=N)N)C(=O)N[C@@H](CCCCN)C(=O)N[C@@H](Cc1ccccc1)C(=O)N[C@@H](Cc1c[nH]cn1)C(N)=O [P-113Tri] | still sensitive | failed to kill C. albicans | stronger activity for killing fungus than P-113 | 21.4 | 43.245 | 3.125 | 6.25 | 25 | 12.5 | 3.10 | 0.78 | induced intracellular ROS formation | potent candidacidal activity | consistent candidacidal activity | strongest ROS-inducing ability | maintained strong antifungal activity |
